# Experimental data from patent publication US12679849B2, “Macrocyclic compounds as STING agonists” (LUPIN LIMITED, priority 2019, dated 2026).
# Experiments:
# Human STING = molecular target: T1, Human STING (Homo sapiens, UniProt Q86WV6, G230A/H232R/R293Q/R71H); assay: Stimulation of human STING signalling in THP1-Blue ISG SEAP reporter cell line; assay type: cell-based; settings: THP1-Blue ISG cells, 18-20 hours incubation
# T1 construct: using human THP1-Blue™ ISG SEAP based reporter cell line (Invivogen); host or cells: THP1-Blue ISG (human monocytic THP-1 derived SEAP reporter line)
# Protocol: Stimulation of Human STING Signalling in THP1 Cell Line
# Compounds were tested for their STING activation potential using human THP1-Blue™ ISG SEAP based reporter cell line (Invivogen). Briefly, THP1-Blue ISG cells (100,000 cells/well) in 96 well plate were treated with varying concentrations of test and reference compounds and incubated at 37° C. with 5% CO2 for 18-20 hours. The control untreated cells were also set up. Post incubation, the cell supernatant was tested for SEAP (Secreted Embryonic Alkaline Phosphatase) activity using the QuantiBlue™ substrate reagent (Invivogen). The formation of blue coloured product was quantified by measuring absorbance at wavelength of 620 nm using PheraStar/Tecan reader. The average of duplicate readouts for each data point was plotted in GraphPad prism 6 against the concentration of test or reference compound to calculate EC50 value. The fold of SEAP induction or increase in luminescence at different data points was estimated against the un-stimulated cell control set.
# IFNβ = assay: Cytokine (IFNβ) secretion in serum samples from CT-26 tumor bearing BALB/c mice; assay type: in vivo, mouse; settings: serum of CT-26 tumor-bearing BALB/c mice, 0.5 mg/kg, 3.5 h
# Protocol: Quantification of the Cytokine Secretion in Serum Samples from the CT-26 Tumor Bearing BALB/c Mice
# CT-26 tumor-bearing animals were administered with test compounds at the dose of 0.5 mg/kg, in a dose-volume of 5 ml/kg. Serum samples were collected at designated time points (3.5 h) and frozen at −80° C. till further estimation. Mouse serum samples were diluted appropriately with dilution buffer before estimation of IFNβ utilizing commercially available kits (VeriKine Mouse IFN Beta ELISA, PBL assay science, Catalog No 42400-2). Raw data values were corrected with the dilution factor and finally expressed in pg/mL.
# T1 sequence (Q86WV6 whole entry R71H/G230A/H232R/R293Q): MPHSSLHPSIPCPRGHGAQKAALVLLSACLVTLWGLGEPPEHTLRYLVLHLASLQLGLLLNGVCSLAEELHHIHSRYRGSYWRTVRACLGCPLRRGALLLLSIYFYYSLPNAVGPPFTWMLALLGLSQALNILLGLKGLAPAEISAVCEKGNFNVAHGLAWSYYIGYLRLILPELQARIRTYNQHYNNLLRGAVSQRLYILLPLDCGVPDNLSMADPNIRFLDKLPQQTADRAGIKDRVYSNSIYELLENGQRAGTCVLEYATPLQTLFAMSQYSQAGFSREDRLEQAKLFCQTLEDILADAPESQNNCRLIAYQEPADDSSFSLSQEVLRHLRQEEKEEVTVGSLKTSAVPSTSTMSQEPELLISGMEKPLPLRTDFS
Structure (SMILES),EC50 (Human STING) [µM],IFNβ secretion (IFNβ) [pg/mL]
"CCn1nc(C)cc1C(=O)Nc1nc2cc(C(N)=O)cc3c2n1C/C=C/Cn1c(NC(=O)c2cc(C)nn2CC)nc2cc(C(N)=O)cc(c21)OCC(CN1CCOCC1)CO3 [Compound 16, (E)-1,15-bis(1-ethyl-3-methyl-1H-pyrazole-5-carboxamido)-8-(morpholinomethyl)-8,9,16,19-tetrahydro-7H-6,10-dioxa-2,14,15a,19a-tetraazacyclopentadeca[3,2,1-cd:8,9,10-c′d′]diindene-4,12-dicarboxamide]",0.011 to 0.1,–
"CCn1nc(C)cc1C(=O)Nc1nc2cc(C(N)=O)cc3c2n1C/C=C/Cn1c(NC(=O)c2cc(C)nn2CC)nc2cc(C(N)=O)cc(c21)OCC(CCN1CCOCC1)CO3 [Compound 13, (E)-1,15-bis(1-ethyl-3-methyl-1H-pyrazole-5-carboxamido)-8-(2-morpholinoethyl)-8,9,16,19-tetrahydro-7H-6,10-dioxa-2,14,15a,19a-tetraazacyclopentadeca[3,2,1-cd:8,9,10-c′d′]diindene-4,12-dicarboxamide]",0.011 to 0.1,–
"CCn1nc(C)cc1C(=O)Nc1nc2cc(C(N)=O)cc3c2n1C/C=C/Cn1c(NC(=O)c2cc(C)nn2CC)nc2cc(C(N)=O)cc(c21)OCC(N1C2CCC1COC2)CO3 [Compound 2, (E)-8-(3-oxa-8-azabicyclo[3.2.1]octan-8-yl)-1,15-bis(1-ethyl-3-methyl-1H-pyrazole-5-carboxamido)-8,9,16,19-tetrahydro-7H-6,10-dioxa-2,14,15a,19a-tetraazacyclopentadeca[3,2,1-cd:8,9,10-c′d′]diindene-4,12-dicarboxamide]",0.001 to 0.01,28305
"CCn1nc(C)cc1C(=O)Nc1nc2cc(C(N)=O)cc3c2n1C/C=C/Cn1c(NC(=O)c2cc(C)nn2CC)nc2cc(C(N)=O)cc(c21)O[C@H]1CN[C@@H](CO3)C1 [Compound 20, (33R,35R,E)-12,62-bis(1-ethyl-3-methyl-1H-pyrazole-5-carboxamido)-11H,61H-2,5-dioxa-1,6(7,1)-dibenzo[d]imidazola-3(3,5)-pyrrolidinacyclodecaphan-8-ene-15,65-dicarboxamide]",0.011 to 0.1,–
"CCn1nc(C)cc1C(=O)Nc1nc2cc(C(N)=O)cc3c2n1C/C=C/Cn1c(NC(=O)c2cc(C)nn2CC)nc2cc(C(N)=O)cc(c21)OCC(N1CCC(O)CC1)CO3 [Compound 22, (E)-1,15-bis(1-ethyl-3-methyl-1H-pyrazole-5-carboxamido)-8-(4-hydroxypiperidin-1-yl)-8,9,16,19-tetrahydro-7H-6,10-dioxa-2,14,15a,19a-tetraazacyclopentadeca[3,2,1-cd:8,9,10-c′d′]diindene-4,12-dicarboxamide]",0.011 to 0.1,–
"CCn1nc(C)cc1C(=O)Nc1nc2cc(C(N)=O)cc3c2n1C/C=C/Cn1c(NC(=O)c2cc(C)nn2CC)nc2cc(C(N)=O)cc(c21)OCC(N1CCC(F)(F)CC1)CO3 [Compound 4, (E)-8-(4,4-difluoropiperidin-1-yl)-1,15-bis(1-ethyl-3-methyl-1H-pyrazole-5-carboxamido)-8,9,16,19-tetrahydro-7H-6,10-dioxa-2,14,15a,19a-tetraazacyclopentadeca[3,2,1-cd:8,9,10-c′d′]diindene-4,12-dicarboxamide]",0.011 to 0.1,–
"CCn1nc(C)cc1C(=O)Nc1nc2cc(C(N)=O)cc3c2n1C/C=C/Cn1c(NC(=O)c2cc(C)nn2CC)nc2cc(C(N)=O)cc(c21)OCC(c1ccccn1)CO3 [Compound 36, (E)-1,15-bis(1-ethyl-3-methyl-1H-pyrazole-5-carboxamido)-8-(pyridin-2-yl)-8,9,16,19-tetrahydro-7H-6,10-dioxa-2,14,15a,19a-tetraazacyclopentadeca[3,2,1-cd:8,9,10-c′d′]diindene-4,12-dicarboxamidexamide]",0.011 to 0.1,–
"CCn1nc(C)cc1C(=O)Nc1nc2cc(C(N)=O)cc3c2n1C/C=C/Cn1c(NC(=O)c2cc(C)nn2CCF)nc2cc(C(N)=O)cc(c21)OCC(N1CCOCC1)CO3 (stereo not drawn) [Compound 17, (E)-15-(1-ethyl-3-methyl-1H-pyrazole-5-carboxamido)-1-(1-(2-fluoroethyl)-3-methyl-1H-pyrazole-5-carboxamido)-8-morpholino-8,9,16,19-tetrahydro-7H-6,10-dioxa-2,14,15a,19a-tetraazacyclopentadeca[3,2,1-cd:8,9,10-c′d′]diindene-4,12-dicarboxamide]",0.011 to 0.1,–
"CCn1nc(C)cc1C(=O)Nc1nc2cc(C(N)=O)cc3c2n1C/C=C/Cn1c(NC(=O)c2cc(C)nn2CC)nc2cc(C(N)=O)cc(c21)OCC(C1CCN(C)CC1)CO3 [Compound 9, (E)-1,15-bis(1-ethyl-3-methyl-1H-pyrazole-5-carboxamido)-8-(1-methylpiperidin-4-yl)-8,9,16,19-tetrahydro-7H-6,10-dioxa-2,14,15a,19a-tetraazacyclopentadeca[3,2,1-cd:8,9,10-c′d′]diindene-4,12-dicarboxamide]",0.011 to 0.1,–

# Further lines, with some results ahead:
EC50 (Human STING) [µM],Structure (SMILES),IFNβ secretion (IFNβ) [pg/mL]
0.001 to 0.01,"CCn1nc(C)cc1C(=O)Nc1nc2cc(C(N)=O)cc3c2n1C/C=C/Cn1c(NC(=O)c2cc(C)nn2CC)nc2cc(C(N)=O)cc(c21)OCC(N1CC[C@H](OC)C1)CO3 [Compound 6, (S,E)-1,15-bis(1-ethyl-3-methyl-1H-pyrazole-5-carboxamido)-8-(3-methoxypyrrolidin-1-yl)-8,9,16,19-tetrahydro-7H-6,10-dioxa-2,14,15a,19a-tetraazacyclopentadeca[3,2,1-cd:8,9,10-c′d′]diindene-4,12-dicarboxamide]",–
0.001 to 0.01,"CCn1nc(C)cc1C(=O)Nc1nc2cc(C(N)=O)cc3c2n1C/C=C/Cn1c(NC(=O)c2cc(C)nn2CC)nc2cc(C(N)=O)cc(c21)OCC(N1C[C@@H](C)O[C@@H](C)C1)CO3 [Compound 5, (E)-8-((2S,6R)-2,6-dimethylmorpholino)-1,15-bis(1-ethyl-3-methyl-1H-pyrazole-5-carboxamido)-8,9,16,19-tetrahydro-7H-6,10-dioxa-2,14,15a,19a-tetraazacyclopentadeca[3,2,1-cd:8,9,10-c′d′]diindene-4,12-dicarboxamide]",–
0.001 to 0.01,"CCn1nc(C)cc1C(=O)Nc1nc2cc(C(N)=O)cc3c2n1C/C=C/Cn1c(NC(=O)c2cc(C)nn2CC)nc2cc(C(N)=O)cc(c21)OCC(N1CCOCC1)CO3 [Compound 3, (E)-1,15-bis(1-ethyl-3-methyl-1H-pyrazole-5-carboxamido)-8-morpholino-8,9,16,19-tetrahydro-7H-6,10-dioxa-2,14,15a,19a-tetraazacyclopentadeca[3,2,1-cd:8,9,10-c′d′]diindene-4,12-dicarboxamide]",–
0.001 to 0.01,"CCn1nc(C)cc1C(=O)Nc1nc2cc(C(N)=O)cc3c2n1C/C=C/Cn1c(NC(=O)c2cc(C)nn2CC)nc2cc(C(N)=O)cc(c21)OCC(N1CCC(C#N)C1)CO3 (stereo not drawn) [Compound 26, (E)-8-(3-cyanopyrrolidin-1-yl)-1,15-bis(1-ethyl-3-methyl-1H-pyrazole-5-carboxamido)-8,9,16,19-tetrahydro-7H-6,10-dioxa-2,14,15a,19a-tetraazacyclopentadeca[3,2,1-cd:8,9,10-c′d′]diindene-4,12-dicarboxamide]",–
0.001 to 0.01,"CCn1nc(C)cc1C(=O)Nc1nc2cc(C(N)=O)cc3c2n1C/C=C/Cn1c(NC(=O)c2cc(C)nn2CC)nc2cc(C(N)=O)cc(c21)OCC(N1CC[C@H](O)C1)CO3 [Compound 11, (S,E)-1,15-bis(1-ethyl-3-methyl-1H-pyrazole-5-carboxamido)-8-(3-hydroxypyrrolidin-1-yl)-8,9,16,19-tetrahydro-7H-6,10-dioxa-2,14,15a,19a-tetraazacyclopentadeca[3,2,1-cd:8,9,10-c′d′]diindene-4,12-dicarboxamide]",–
0.001 to 0.01,"CCn1nc(C)cc1C(=O)Nc1nc2cc(C(N)=O)cc3c2n1C/C=C/Cn1c(NC(=O)c2cc(C)nn2CC)nc2cc(C(N)=O)cc(c21)OCC(n1ccnc1)CO3 [Compound 19, (E)-1,15-bis(1-ethyl-3-methyl-1H-pyrazole-5-carboxamido)-8-(1H-imidazol-1-yl)-8,9,16,19-tetrahydro-7H-6,10-dioxa-2,14,15a,19a-tetraazacyclopentadeca[3,2,1-cd:8,9,10-c′d′]diindene-4,12-dicarboxamide]",–
0.001 to 0.01,"CCn1nc(C)cc1C(=O)Nc1nc2cc(C(N)=O)cc3c2n1C/C=C/Cn1c(NC(=O)c2cc(C)nn2CC)nc2cc(C(N)=O)cc(c21)OCC(N1CC[C@@H](OC)C1)CO3 [Compound 35, (R,E)-1,15-bis(1-ethyl-3-methyl-1H-pyrazole-5-carboxamido)-8-(3-methoxypyrrolidin-1-yl)-8,9,16,19-tetrahydro-7H-6,10-dioxa-2,14,15a,19a-tetraazacyclopentadeca[3,2,1-cd:8,9,10-c′d′]diindene-4,12-dicarboxamide]",–
0.001 to 0.01,"CCn1nc(C)cc1C(=O)Nc1nc2cc(C(N)=O)cc3c2n1C/C=C/Cn1c(NC(=O)c2cc(C)nn2CC)nc2cc(C(N)=O)cc(c21)OCC(N1CC[C@@H](O)C1)CO3 [Compound 12, (R,E)-1,15-bis(1-ethyl-3-methyl-1H-pyrazole-5-carboxamido)-8-(3-hydroxypyrrolidin-1-yl)-8,9,16,19-tetrahydro-7H-6,10-dioxa-2,14,15a,19a-tetraazacyclopentadeca[3,2,1-cd:8,9,10-c′d′]diindene-4,12-dicarboxamide]",–
